Read-outs that look alike come from different tables or passages of the source.
Biological target: NR1/NR2A (Homo sapiens (Human), UniProt Q05586+Q12879)
Assay: FDSS Ca2+ influx inhibition assay in HEK293 cells expressing NR1/NR2A
Assay type: cell-based
Details: 3 μM glutamate, 3 μM glycine, 1 mM Ca2+
Method in brief: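 Fluo-8-loaded HEK293 NR1/NR2A cells preincubated 10 min with compound at 10 μM final (0.1% DMSO) in Ca2+/Mg2+-free HBSS with 20 mM HEPES. Stimulated with 3 μM glutamate, 3 μM glycine, 1 mM Ca2+; FDSS recording for 3 min, end/baseline fluorescence ratio compared with MK801.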

[1] = inhibition relative to MK801, read-out: NR2A IC50

NR1/NR2A, sequence (Q12879 23-1464, other chains not shown): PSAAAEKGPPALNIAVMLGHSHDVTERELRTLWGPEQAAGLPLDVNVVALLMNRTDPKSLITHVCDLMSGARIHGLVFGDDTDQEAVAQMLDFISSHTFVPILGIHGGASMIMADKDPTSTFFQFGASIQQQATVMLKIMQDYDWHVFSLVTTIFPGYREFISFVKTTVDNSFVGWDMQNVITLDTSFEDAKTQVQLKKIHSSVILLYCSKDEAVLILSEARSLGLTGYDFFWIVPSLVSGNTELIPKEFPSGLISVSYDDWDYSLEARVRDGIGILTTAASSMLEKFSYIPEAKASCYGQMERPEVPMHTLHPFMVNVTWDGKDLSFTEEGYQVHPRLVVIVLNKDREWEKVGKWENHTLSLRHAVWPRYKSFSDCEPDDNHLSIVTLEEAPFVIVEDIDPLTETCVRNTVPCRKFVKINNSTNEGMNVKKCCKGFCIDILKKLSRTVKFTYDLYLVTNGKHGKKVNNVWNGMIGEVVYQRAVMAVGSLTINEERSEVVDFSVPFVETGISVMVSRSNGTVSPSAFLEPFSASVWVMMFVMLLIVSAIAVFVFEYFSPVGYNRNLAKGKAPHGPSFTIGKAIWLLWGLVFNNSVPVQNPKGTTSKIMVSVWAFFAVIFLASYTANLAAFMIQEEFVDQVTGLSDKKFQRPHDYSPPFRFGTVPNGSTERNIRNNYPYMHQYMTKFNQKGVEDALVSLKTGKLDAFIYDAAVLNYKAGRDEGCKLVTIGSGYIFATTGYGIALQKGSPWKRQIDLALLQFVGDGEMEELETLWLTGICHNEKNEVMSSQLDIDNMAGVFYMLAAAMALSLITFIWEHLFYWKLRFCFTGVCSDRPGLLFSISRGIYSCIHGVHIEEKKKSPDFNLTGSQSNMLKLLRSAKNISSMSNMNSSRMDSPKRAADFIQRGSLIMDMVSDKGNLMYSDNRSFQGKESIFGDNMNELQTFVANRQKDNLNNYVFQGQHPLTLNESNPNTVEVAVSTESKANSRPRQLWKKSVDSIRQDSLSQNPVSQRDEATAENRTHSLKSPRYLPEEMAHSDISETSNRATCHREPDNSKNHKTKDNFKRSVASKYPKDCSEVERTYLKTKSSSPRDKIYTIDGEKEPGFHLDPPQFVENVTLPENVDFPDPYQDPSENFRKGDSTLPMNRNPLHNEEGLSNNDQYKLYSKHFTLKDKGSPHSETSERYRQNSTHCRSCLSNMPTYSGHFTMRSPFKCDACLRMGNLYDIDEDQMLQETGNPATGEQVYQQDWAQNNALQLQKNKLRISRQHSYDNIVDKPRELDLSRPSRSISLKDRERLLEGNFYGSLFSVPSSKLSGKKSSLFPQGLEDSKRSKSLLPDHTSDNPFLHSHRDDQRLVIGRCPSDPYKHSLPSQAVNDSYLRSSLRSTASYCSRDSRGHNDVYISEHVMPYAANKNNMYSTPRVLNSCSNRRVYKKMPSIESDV

Row | Compound | IC50 [1] | IC50 (read-out: Binned Activity)
1 | Cc1csc(CNC(=O)c2ccc(CNS(=O)(=O)c3ccc(F)c(Cl)c3)nc2)n1 [6-(3-chloro-4-fluorobenzenesulfon-amidomethyl)-N-[(4-methyl-1,3-thiazol-2-yl)methyl]pyridine-3-carboxamide] | 10 µM | > 10 µM
2 | COc1cc(CNC(=O)c2ccc(CNS(=O)(=O)c3ccc(F)c(Cl)c3)nc2)ccn1 [6-(3-chloro-4-fluorobenzenesulfon-amidomethyl)-N-[(2-methoxypyridin-4-yl)methyl]pyridine-3-carboxamide] | 10 µM | > 10 µM
3 | O=C(NCc1ncccc1C(F)(F)F)c1cnc(CNS(=O)(=O)c2ccc(F)c(Cl)c2)cn1 [5-(3-chloro-4-fluorobenzenesulfon-amidomethyl)-N-{[3-(trifluoromethyl)pyridin-2-yl]methyl}pyrazine-2-carboxamide] | 10 µM | > 10 µM
4 | O=C(NCc1cncs1)c1ccc(CNS(=O)(=O)c2ccc(F)c(Cl)c2)cn1 [5-(3-chloro-4-fluorobenzenesulfon-amidomethyl)-N-(1,3-thiazol-5-ylmethyl)pyridine-2-carboxamide] |  | 0.1 to 1 µM
5 | O=C(NCc1cnco1)c1ccc(CNS(=O)(=O)c2ccc(F)c(Cl)c2)cn1 [5-(3-chloro-4-fluorobenzenesulfon-amidomethyl)-N-(1,3-oxazol-5-ylmethyl)pyridine-2-carboxamide] |  | 1 to 10 µM
6 | Cc1ncc(CNC(=O)c2cnc(CNC(=O)c3cc(F)cc(F)c3)c(C)n2)s1 [5-{[(3,5-difluorophenyl)form-amido]methyl}-6-methyl-N-[(2-methyl-1,3-thiazol-5-yl)methyl]pyrazine-2-carboxamide] | 10 µM | > 10 µM
7 | Cc1ncc(C(C)NC(=O)c2cnc(CNS(=O)(=O)c3ccc(F)c(Cl)c3)cn2)s1 (stereo not drawn) [5-(3-chloro-4-fluorobenzenesulfon-amidomethyl)-N-[1-(2-methyl-1,3-thiazol-5-yl)ethyl]pyrazine-2-carboxamide] |  | 0.1 to 1 µM
8 | Cc1ncc(CNC(=O)c2ccc(CNS(=O)(=O)c3cc(Cl)cc(Cl)c3)cn2)s1 [5-(3,5-dichlorobenzenesulfon-amidomethyl)-N-[(2-methyl-1,3-thiazol-5-yl)methyl]pyridine-2-carboxamide] | 10 µM | > 10 µM
9 | O=C(NC1CCS(=O)(=O)C1)c1ccc(CNS(=O)(=O)c2ccc(F)c(Cl)c2)nc1 (stereo not drawn) [6-(3-chloro-4-fluorobenzenesulfon-amidomethyl)-N-(1,1-dioxo-1λ^6-thiolan-3-yl)pyridine-3-carboxamide] | 10 µM | > 10 µM
10 | Cc1ncc(CNC(=O)c2cnc(CNS(=O)(=O)c3ccccc3F)c(C)n2)s1 [5-(2-fluorobenzenesulfon-amidomethyl)-6-methyl-N-[(2-methyl-1,3-thiazol-5-yl)methyl]pyrazine-2-carboxamide] | 10 µM | > 10 µM
11 | Cc1ncc(CNC(=O)c2ccc(CNS(=O)(=O)c3ccoc3)cn2)s1 [5-(furan-3-sulfonamidomethyl)-N-[(2-methyl-1,3-thiazol-5-yl)methyl]pyridine-2-carboxamide] | 10 µM | > 10 µM
12 | O=C(NCc1cccnc1)c1ncc(CNS(=O)(=O)c2ccc(F)c(Cl)c2)cn1 [5-(3-chloro-4-fluorobenzenesulfon-amidomethyl)-N-(pyridin-3-ylmethyl)pyrimidine-2-carboxamide] | 10 µM | > 10 µM
13 | Cc1ncc(CNC(=O)c2cnc(CNS(=O)(=O)c3ccccc3F)cn2)s1 [5-(2-fluorobenzenesulfon-amidomethyl)-N-[(2-methyl-1,3-thiazol-5-yl)methyl]pyrazine-2-carboxamide] | 10 µM | > 10 µM
14 | Cc1ncc(CNC(=O)c2ccc(CNS(=O)(=O)c3ccc(F)c(F)c3)cn2)s1 [5-(3,4-difluorobenzenesulfon-amidomethyl)-N-[(2-methyl-1,3-thiazol-5-yl)methyl]pyridine-2-carboxamide] |  | 0.1 to 1 µM
15 | Cc1ncc(CNC(=O)c2ccc(CNS(=O)(=O)c3cc(F)cc(F)c3)cn2)s1 [5-(3,5-difluorobenzenesulfon-amidomethyl)-N-[(2-methyl-1,3-thiazol-5-yl)methyl]pyridine-2-carboxamide] | 10 µM | > 10 µM
16 | Cc1ncc(CNC(=O)c2cnc(CNC(=O)c3ccc(Cl)cc3Cl)cn2)s1 [5-{[(2,4-dichlorophenyl)form-amido]methyl}-N-[(2-methyl-1,3-thiazol-5-yl)methyl]pyrazine-2-carboxamide] | 10 µM | > 10 µM
17 | Cc1ncc(CNC(=O)c2cnc(CNS(=O)(=O)c3ccc(F)c(F)c3)cn2)s1 [5-(3,4-difluorobenzenesulfon-amidomethyl)-N-[(2-methyl-1,3-thiazol-5-yl)methyl]pyrazine-2-carboxamide] |  | 0.1 to 1 µM
18 | Cc1ccc(CNC(=O)c2ccc(CNS(=O)(=O)c3ccc(F)c(Cl)c3)nc2)n1C [6-(3-chloro-4-fluorobenzenesulfon-amidomethyl)-N-[(1,5-dimethyl-1H-pyrrol-2-yl)methyl]pyridine-3-carboxamide] | 10 µM | > 10 µM
19 | CC(NC(=O)c1ccc(CNS(=O)(=O)c2ccc(F)c(Cl)c2)nn1)c1cccs1 (stereo not drawn) [6-(3-chloro-4-fluorobenzenesulfon-amidomethyl)-N-[1-(thiophen-2-yl)ethyl]pyridazine-3-carboxamide] | 10 µM | > 10 µM
20 | O=C(NCc1cccnc1)c1ccc(CNS(=O)(=O)c2ccc(F)c(Cl)c2)cn1 [5-(3-chloro-4-fluorobenzenesulfon-amidomethyl)-N-(pyridin-3-ylmethyl)pyridine-2-carboxamide] |  | 0.1 to 1 µM
21 | O=C(NCc1cncs1)c1ccc(CNS(=O)(=O)c2ccc(F)c(Cl)c2)nc1 [6-(3-chloro-4-fluorobenzenesulfon-amidomethyl)-N-(1,3-thiazol-5-ylmethyl)pyridine-3-carboxamide] | 10 µM | > 10 µM
22 | Cc1nc(CNC(=O)c2ccc(CNS(=O)(=O)c3ccc(F)c(Cl)c3)nn2)cs1 [6-(3-chloro-4-fluorobenzenesulfon-amidomethyl)-N-[(2-methyl-1,3-thiazol-4-yl)methyl]pyridazine-3-carboxamide] | 10 µM | > 10 µM
23 | Cc1ccc(CNC(=O)c2cnc(CNS(=O)(=O)c3ccc(F)c(Cl)c3)cn2)n1C [5-(3-chloro-4-fluorobenzenesulfon-amidomethyl)-N-[(1,5-dimethyl-1H-pyrrol-2-yl)methyl]pyrazine-2-carboxamide] |  | 0.1 to 1 µM

More lines, now with the values ahead:

Row | IC50 [1] | IC50 (read-out: Binned Activity) | Compound
24 | 10 µM | > 10 µM | Cc1ncc(CNC(=O)c2ccc(CNS(=O)(=O)c3ccc(C(F)(F)F)cc3)cn2)s1 [N-[(2-methyl-1,3-thiazol-5-yl)methyl]-5-[4-(trifluoromethyl)benzene-sulfonamidomethyl] pyridine-2-carboxamide]
25 | 10 µM | > 10 µM | COc1ccc(CNC(=O)c2ccc(CNS(=O)(=O)c3ccc(F)c(Cl)c3)nn2)cc1 [6-(3-chloro-4-fluorobenzenesulfon-amidomethyl)-N-[(4-methoxyphenyl)methyl] pyridazine-3-carboxamide]
26 |  | 0.1 to 1 µM | Cc1ccncc1CNC(=O)c1ccc(CNS(=O)(=O)c2ccc(F)c(Cl)c2)cn1 [5-(3-chloro-4-fluorobenzenesulfon-amidomethyl)-N-[(4-methylpyridin-3-yl)methyl]pyridine-2-carboxamide]
27 | 10 µM | > 10 µM | Cc1cnc(CNC(=O)c2ccc(CNS(=O)(=O)c3ccc(F)c(Cl)c3)nn2)cn1 [6-(3-chloro-4-fluorobenzenesulfon-amidomethyl)-N-[(5-methylpyrazin-2-yl)methyl]pyridazine-3-carboxamide]
28 |  | 1 to 10 µM | Cc1ncc(CNC(=O)c2cnc(CNS(=O)(=O)c3ccc(F)cc3)cn2)s1 [5-(4-fluorobenzenesulfon-midomethyl)-N-[(2-methyl-1,3-thiazol-5-yl)methyl]pyrazine-2-carboxamide]
29 | 10 µM | > 10 µM | Cc1ncc(CNC(=O)c2ccc(CNS(=O)(=O)c3cc4ccccc4s3)cn2)s1 [5-(1-benzothiophene-2-sulfonamidomethyl)-N-[(2-methyl-1,3-thiazol-5-yl)methyl]pyridine-2-carboxamide]
30 | 10 µM | > 10 µM | O=C(NCc1nccs1)c1cnc(CNS(=O)(=O)c2ccc(F)c(Cl)c2)cn1 [5-(3-chloro-4-fluorobenzenesulfon-amidomethyl)-N-(1,3-thiazol-2-ylmethyl)pyrazine-2-carboxamide]
31 | 10 µM | > 10 µM | Cc1ncc(CNC(=O)c2cnc(CNS(=O)(=O)c3ccc(Cl)c(Cl)c3)cn2)s1 [5-(3,4-dichlorobenzenesulfon-amidomethyl)-N-[(2-methyl-1,3-thiazol-5-yl)methyl]pyrazine-2-carboxamide]
32 |  | 1 to 10 µM | Cn1cncc1CNC(=O)c1ccc(CNS(=O)(=O)c2ccc(F)c(Cl)c2)cn1 [5-(3-chloro-4-fluorobenzenesulfon-amidomethyl)-N-[(1-methyl-1H-imidazol-5-yl)methyl]pyridine-2-carboxamide]
33 | 10 µM | > 10 µM | Cc1ncc(CNC(=O)c2cnc(CNC(=O)c3cccc(Cl)c3C)c(C)n2)s1 [5-{[(3-chloro-2-methylphenyl)formamido]methyl}-6-methyl-N-[(2-methyl-1,3-thiazol-5-yl)methyl]pyrazine-2-carboxamide]
34 | 10 µM | > 10 µM | Cn1nccc1CNC(=O)c1cnc(CNS(=O)(=O)c2ccc(F)c(Cl)c2)cn1 [5-(3-chloro-4-fluorobenzenesulfon-amidomethyl)-N-[(1-methyl-1H-pyrazol-5-yl)methyl]pyrazine-2-carboxamide]
35 | 10 µM | > 10 µM | Cc1ncc(CNC(=O)c2ccc(CNC(=O)c3ccc(Cl)cc3Cl)cn2)s1 [5-{[(2,4-dichlorophenyl)form-amido]methyl}-N-[(2-methyl-1,3-thiazol-5-yl)methyl]pyridine-2-carboxamide]
